Measured values reported in US20230227466A1, “SUBSTITUTED THIENOPYRIMIDINES THAT INTERACT WITH THE RAS SUPERFAMILY FOR THE TREATMENT OF CANCERS, INFLAMMATORY DISEASES, RASOPATHIES, AND FIBROTIC DISEASE” (SHY Therapeutics, LLC, priority 2020, published 2023).
Where two headings read alike, the source gives them in different places.

How the values were obtained:
[1] = tested on: MIA-PaCa-2 pancreatic cancer cell line (KRAS G12C); assay: Cell proliferation assay (CellTiter 96 Aqueous One); format: cell-based; settings: Homo sapiens
Protocol: Cell lines: Human tumor-derived cell lines were purchased from American Type Culture Collection. Human tumor-derived pancreatic cancer cell line MIA-PACA2 (having a KRAS G12C mutation) and Panc-1 (having a KRAS G12D mutation), and Human non-small cell lung cancer (NSCLC) cell line A549 (having a KRAS G12S mutation) were grown in complete DMEM-High Glucose. Human colon cancer cell line SW-620 (having a KRAS G12V mutation) was grown in RPMI. All cell lines were supplemented with penicillin (100 U/mL), streptomycin (100 μg/mL), and 10% heat-inactivated FBS at 37° C. in a humidified incubator with 5% CO2.
Method: Cells were plated at 2000 to 5000 cells/well density in 96-wells plate and cultured overnight. Small molecules to be tested were added to the cells in the final concentration of 10 μM in the presence of 0.3% DMSO and 10% FBS, and incubated for 2-4 days at 37° C. in a humidified incubator with 5% CO2. For IC50 value determination, serial dilutions of compounds were added to cells under the same conditions.
Assay: At the end of the incubation period, cell viability was measured using the CellTiter 96® Aqueous One Solution Cell Proliferation Assay according to manufacturer specifications (Promega, Madison, Wis.). The percentage of small molecules inhibition of cellular proliferation was calculated from raw data.

[2] = target: T1, Rac-1 (Homo sapiens, UniProt P63000); assay: Ras GTP binding domain inhibition assay (labeled-GTP competition, cell-free); design: made in house
Text: (§1) This is a competitive binding assay. It involves the immobilization of a protein on solid phase, interaction with a small molecule drug candidate, and then competitive binding with a labeled native GTP or GDP ligand.
(§2) In theory, the assay is suitable for use with any GTP or GDP binding protein.
(§3) The following method was developed as specific assay for the following proteins: KRas wild type, KRas Q61H mutant, KRas G12C mutant, KRas G12D mutant, Rac-1, and Rho-A.
(§4) The small GTPases proteins: KRas wild type. KRas Q61H mutant, KRas G12C mutant, KRas G12D mutants, Rac-1, and Rho-A were expressed as His-tagged proteins. In addition, the Guanosine nucleotide Exchange Factor (GEF) Sos protein (residues 556-1049) was expressed as a His-tagged protein. In cells, the guanine nucleotide exchange factor Sos protein promotes activation of Ras proteins by stimulating an exchange of GDP for GTP. The inclusion of Sos to the Ras GTP binding domain inhibition assay may be considered as an alternative representation of physiological cellular conditions for evaluating the inhibitory activity of some of the tested small molecules.
(§5) For the assay, all purified small GTPases proteins were diluted in Buffer-I or Buffer-II to a final concentration of 10-30 μg/mL. 200 μL of each diluted protein was added to a nickel-coated 96-well plate and incubated overnight at 4° C. Then the protein solution was discarded and 200 μL of Buffer-I or Buffer-II was added to each well in the presence of 1% DMSO. Compounds to be tested were added to the protein-coated wells at final concentration of 20 μM, and incubated for 3 hours at room temperature with and without 10-30 μg/mL of Sos added to the final hour of the incubation. When performing IC50 measurements a serial dilution of all tested concentrations was added. Then Cy3-GTP or Cy5-GTP was added to each well to a final concentration of 100 nM. The labeled GTP was incubated for 45 minutes at room temperature. Following GTP incubation, wells were washed 3× in Buffer-I or Buffer-II and 200 μL of Buffer-I or Buffer-II was added to each well. Following washes, the amount of bound labeled-GTP was measured using a SpectraMax M3 (Molecular Devices).

[3] = target: T2, Rho-A (Homo sapiens, UniProt P61586); assay: as above; design: made in house
Text: as §1, §2, §3, §4, §5

[4] = target: T3, KRas wild type (Homo sapiens, UniProt P01116); assay: as above; design: made in house
Text: as §1, §2, §3, §4, §5

[5] = target: T4, KRas Q61H mutant (Homo sapiens, UniProt P01116, Q61H); assay: as above
T4 construct: made in house
Text: as §1, §2, §3, §4, §5

[6] = target: T5, KRas G12D mutant (Homo sapiens, UniProt P01116, G12D); assay: as above
T5 construct: made in house
Text: as §1, §2, §3, §4, §5

[7] = target: T6, KRas G12C mutant (Homo sapiens, UniProt P01116, G12C); assay: as above
T6 construct: made in house
Text: as §1, §2, §3, §4, §5

[8] = target: GTP binding domain of Ras (Homo sapiens, UniProt P01112); settings: literature (Feuerstein 1987; John 1990); cited from earlier work
[9] = target: T7, K-Ras (Q61H) (Homo sapiens, UniProt P01116, Q61H); assay: Scintillation Proximity Assay (SPA) GTP affinity; settings: read-out: SPA GTP affinity for binding domain
Text: (§6) As disclosed in International Application No. PCT/US2018/038613 and U.S. patent application Ser. No. 16/013,872, the affinity of GTP for the GTP binding domain of K-Ras utilizing a Scintillation Proximity Assay (SPA) and MicroScale Thermophoresis (MST) has been measured. These methods were not available when Wittinghofer and colleagues undertook their studies.
(§7) This therefore led to the novel, unanticipated conclusion that compounds such as small molecules could be discovered that would bind to a Ras GTP binding domain and compete with the binding of GTP to Ras.
(§8) See Khawaja et al., “Scintillation proximity assay in lead discovery”, Expert Opin. Drug Discov., 2008 November; 3(11):1267-80 regarding SPA procedures. See the following references regarding MST technology: Wienken et al., Nature Communications (2010), Protein binding assays in biological liquids using MicroScale Thermophoresis; Jerabek-Willemsen et al., ASSAY and Drug Development Technologies (2011), Molecular interaction studies using MicroScale Thermophoresis; Lin et al., Cell (2012), Inhibition of basal FGF receptor signaling by dimeric Grb2; Seidel et al., Angewandte Chemie (2012), Label-Free MicroScale Thermophoresis discriminates sites and affinity of protein-ligand binding; Seidel et al., Methods (2012), MicroScale Thermophoresis quantifies biomolecular interactions under previously challenging conditions; Parker & Newstead, Nature (2014), Molecular basis of nitrate uptake by the plant nitrate transporter NRT1.1; and Jerabek-Willemsen et al., Journal of Molecular Structure (2014), MicroScale Thermophoresis: Interaction analysis and beyond.

[10] = target: T8, K-Ras (G12D) (Homo sapiens, UniProt P01116, G12D); assay: Scintillation Proximity Assay (SPA) GTP affinity; settings: read-out: SPA GTP affinity for binding domain
Text: as §6, §7, §8

[11] = target: T9, K-Ras (G12C) (Homo sapiens, UniProt P01116, G12C); assay: Scintillation Proximity Assay (SPA) GTP affinity; settings: read-out: SPA GTP affinity for binding domain
Text: as §6, §7, §8

[12] = target: T3, KRas wild type; assay: Scintillation Proximity Assay (SPA) GTP affinity; settings: read-out: SPA GTP affinity for binding domain
Text: as §6, §7, §8

[13] = target: K-Ras GTP binding domain (wild type and mutant K-Ras); assay: SPA and MST studies, GTP affinity across K-Ras forms
Text: as §7, §8

[14] = target: T2, Rho-A; assay: Scintillation Proximity Assay (SPA) GTP affinity; settings: read-out: SPA GTP affinity for binding domain
[15] = target: T1, Rac-1; assay: MicroScale Thermophoresis (MST) GTP affinity; settings: read-out: MST GTP affinity for binding domain
Text: as §6, §7, §8

[16] = target: T2, Rho-A; assay: MicroScale Thermophoresis (MST) GTP affinity; settings: read-out: MST GTP affinity for binding domain
Text: as §6, §7, §8

[17] = target: T7, K-Ras (Q61H); assay: MicroScale Thermophoresis (MST) GTP affinity; settings: read-out: MST GTP affinity for binding domain
Text: as §6, §7, §8

[18] = target: T8, K-Ras (G12D); assay: MicroScale Thermophoresis (MST) GTP affinity; settings: read-out: MST GTP affinity for binding domain
Text: as §6, §7, §8

[19] = target: T9, K-Ras (G12C); assay: MicroScale Thermophoresis (MST) GTP affinity; settings: read-out: MST GTP affinity for binding domain
Text: as §6, §7, §8

[20] = target: T3, KRas wild type; assay: MicroScale Thermophoresis (MST) GTP affinity; settings: read-out: MST GTP affinity for binding domain
Text: as §6, §7, §8

[21] = target: T1, Rac-1; assay: Scintillation Proximity Assay (SPA) GTP affinity; settings: read-out: SPA GTP affinity for binding domain
[22] = target: Rac-1 and Rho-A; assay: SPA and MST studies, GTP affinity for Rho subfamily members; settings: read-out: affinity of GTP for the binding domain of Rac-1 and Rho-A members of the Rho subfamily
Text: as §7, §8

[23] = without SOS, read-out: Rac-1: % inh.
[24] = without SOS, read-out: Rho-A: % inh.
[25] = with SOS, read-out: KRas wild type + SOS: % inh.
[26] = without SOS, read-out: KRas wild type: % inh.
[27] = with SOS, read-out: KRas Q61H mutant + SOS: % inh.
[28] = without SOS, read-out: KRas Q61H mutant: % inh.
[29] = with SOS, read-out: KRas G12D mutant + SOS: % inh.
[30] = without SOS, read-out: KRas G12D mutant: % inh.
[31] = with SOS, read-out: KRas G12C mutant + SOS: % inh.
[32] = without SOS, read-out: KRas G12C mutant: % inh.

Row | SMILES | inhibition at 20 µM [2, 23] | inhibition at 20 µM [3, 24] | inhibition at 20 µM [4, 25] | inhibition at 20 µM [4, 26] | inhibition at 20 µM [5, 27] | inhibition at 20 µM [5, 28] | inhibition at 20 µM [6, 29] | inhibition at 20 µM [6, 30] | inhibition at 20 µM [7, 31] | inhibition at 20 µM [7, 32] | affinity for the GTP binding domain of Ras [8] | further results
1 | Oc1nc(-c2ccccn2)nc2c(-c3ncccc3F)csc12 [Compound 27, 7-(3-Fluoropyridin-2-yl)-2-(pyridin-2-yl)thieno[3,2-d]pyrimidin-4-ol] | 76 to 100% | 76 to 100% | 76 to 100% | 76 to 100% | 76 to 100% | 51 to 75% | 76 to 100% | 51 to 75% | 76 to 100% | 51 to 75% | – | IC50 ([1]; MIA PaCa-2, MIA PaCa-2): 1 to 4.99 µM; inhibition at 10 µM ([1]; 10 μM, MIA PaCa-2, read-out: % inh cell proliferation (10 μM) in MIA PaCa-2): 76 to 100%; inhibition at 20 µM ([2]; with SOS, read-out: Rac-1 + SOS: % inh.): 76 to 100%; inhibition at 20 µM ([3]; with SOS, read-out: Rho-A + SOS: % inh.): 76 to 100%; IC50 ([5]; with SOS): 1000 to 4990 nM
2 | Oc1nc(-c2ccc3[nH]ncc3n2)nc2c(-c3ccccn3)csc12 [Compound 93, 2-(1H-Pyrazolo[4,3-b]pyridin-5-yl)-7-(pyridin-2-yl)thieno[3,2-d]pyrimidin-4-ol] | 1 to 25% | 51 to 75% | 0% | 26 to 50% | 1 to 25% | 1 to 25% | 1 to 25% | 26 to 50% | 1 to 25% | 26 to 50% | – | –
3 | Nc1nc2c(ncn2[C@@H]2O[C@H](COP(=O)(O)OP(=O)(O)O)[C@@H](O)[C@H]2O)c(=O)[nH]1 [GDP] | – | – | – | – | – | – | – | – | – | – | single to double digit picomolar | –
4 | Nc1nc2c(ncn2[C@@H]2O[C@H](COP(=O)(O)OP(=O)(O)OP(=O)(O)O)[C@@H](O)[C@H]2O)c(=O)[nH]1 [GTP] | – | – | – | – | – | – | – | – | – | – | single to double digit picomolar | Kd [9]: 118 ± 11 nM; Kd [10]: 270 ± 15 nM; Kd [11]: 258 ± 18 nM; Kd [12]: 243 ± 15 nM; Kd [13]: 100 to 465 nM; Kd [14]: 129 ± 12 nM; Kd [15]: 166 ± 10 nM; Kd [16]: 130 ± 5 nM; Kd [17]: 157 ± 21 nM; Kd [18]: 244 ± 12 nM; Kd [19]: 207 ± 46 nM; Kd [20]: 463 ± 2 nM; Kd [21]: 151 ± 14 nM; Kd [22]: 120 to 170 nM
